Measurements: PubChem BioAssay AID248 (DTP/NCI, 2004)
Several values for one entry are separate records, joined by “and”; a condition that tells them apart may be missing. Equal values may be shown once. Inconclusive results and toxic doses are left out. No stated cut-off is given here; in the data, active means T/C of 150% or more; inactive means T/C below 125%.

Test system: L1210 leukemia ip in BDF1 mice, survival T/C
Test: NCI In Vivo Anticancer Drug Screen. Data for tumor model L1210 Leukemia (intraperitoneal) in B6D2F1 (BDF1) mice
Settings: endpoint: mean survival time, higher = longer survival
In short: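 Survival endpoint. Drug-treated group vs vehicle group, expressed as T divided by C. Tumor passaged by transplantation.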

[1] = dose: 100.0 mg/kg/injection, schedule: Q04DX002 (ip), vehicle: saline with Tween-80
[2] = dose: 200.0 mg/kg/injection, schedule: Q04DX002 (ip), vehicle: saline with Tween-80
[3] = dose: 400.0 mg/kg/injection, schedule: Q04DX002 (ip), vehicle: saline with Tween-80
[4] = dose: 100.0 mg/kg/injection, schedule: Q01DX009 (ip), vehicle: saline with Tween-80
[5] = dose: 100.0 mg/kg/injection, schedule: Q01DX009 (ip), vehicle: saline
[6] = dose: 200.0 mg/kg/injection, schedule: Q01DX009 (ip), vehicle: saline
[7] = dose: 50.0 mg/kg/injection, schedule: Q01DX009 (ip), vehicle: saline with Tween-80
[8] = dose: 100.0 mg/kg/injection, schedule: Q04DX003 (ip), vehicle: Klucel (hydroxypropylcellulose) (HPC)
[9] = dose: 200.0 mg/kg/injection, schedule: Q01DX009 (ip), vehicle: saline with Tween-80
[10] = dose: 200.0 mg/kg/injection, schedule: Q04DX003 (ip), vehicle: Klucel (hydroxypropylcellulose) (HPC)
[11] = dose: 400.0 mg/kg/injection, schedule: Q04DX003 (ip), vehicle: Klucel (hydroxypropylcellulose) (HPC)
[12] = dose: 100.0 mg/kg/injection, schedule: Q04DX003 (ip), vehicle: saline with Tween-80
[13] = dose: 100.0 mg/kg/injection, schedule: Q01DX009 (ip), vehicle: Klucel (hydroxypropylcellulose) (HPC)
[14] = dose: 200.0 mg/kg/injection, schedule: Q01DX009 (ip), vehicle: Klucel (hydroxypropylcellulose) (HPC)
[15] = dose: 400.0 mg/kg/injection, schedule: Q01DX009 (ip), vehicle: Klucel (hydroxypropylcellulose) (HPC)
[16] = dose: 100.0 mg/kg/injection, schedule: Q01DX001 (ip), vehicle: saline
[17] = dose: 200.0 mg/kg/injection, schedule: Q01DX001 (ip), vehicle: saline
[18] = dose: 400.0 mg/kg/injection, schedule: Q01DX001 (ip), vehicle: saline
[19] = dose: 100.0 mg/kg/injection, schedule: Q01DX001 (ip), vehicle: carboxymethylcellulose (CMC)
[20] = dose: 200.0 mg/kg/injection, schedule: Q01DX001 (ip), vehicle: carboxymethylcellulose (CMC)
[21] = dose: 400.0 mg/kg/injection, schedule: Q01DX001 (ip), vehicle: carboxymethylcellulose (CMC)
[22] = dose: 50.0 mg/kg/injection, schedule: Q01DX009 (ip), vehicle: Klucel (hydroxypropylcellulose) (HPC)
[23] = dose: 100.0 mg/kg/injection, schedule: Q04DX003 (ip), vehicle: saline
[24] = dose: 200.0 mg/kg/injection, schedule: Q04DX003 (ip), vehicle: saline

Measured: T/C

O/N=C/c1cccc(CC(O)(C(F)(F)F)C(F)(F)F)n1
inactive: dose: 50.0 mg/kg/injection, schedule: Q04DX002 (ip), vehicle: saline with Tween-80 103 % of control | dose: 100.0 mg/kg/injection, schedule: Q01DX001 (ip), vehicle: Klucel (hydroxypropylcellulose) (HPC) 98 % of control | [1] 88 % of control | dose: 200.0 mg/kg/injection, schedule: Q01DX001 (ip), vehicle: Klucel (hydroxypropylcellulose) (HPC) 98 % of control | [2] 109 % of control | dose: 400.0 mg/kg/injection, schedule: Q01DX001 (ip), vehicle: Klucel (hydroxypropylcellulose) (HPC) 87 % of control | [3] 106 % of control

CCCCCCCNC(CC(C)C)C(=O)OCC (configuration not stated)
inactive: dose: 25.0 mg/kg/injection, schedule: Q04DX002 (ip), vehicle: Klucel (hydroxypropylcellulose) (HPC) 91 % of control | dose: 50.0 mg/kg/injection, schedule: Q04DX002 (ip), vehicle: Klucel (hydroxypropylcellulose) (HPC) 97 % of control | dose: 100.0 mg/kg/injection, schedule: Q04DX002 (ip), vehicle: Klucel (hydroxypropylcellulose) (HPC) 94 % of control

O=C(O)C(CNC(=O)C(F)(F)F)Cc1ccc([N+](=O)[O-])cc1 (configuration not stated)
inactive: [4] 120 % of control | [5] 88 % of control | [6] 103 % of control

O=C1CC(=P(c2ccccc2)(c2ccccc2)c2ccccc2)C(=O)O1
inactive: [7] 103 % of control | [4] 103 % of control | [8] 93 % of control | [9] 100 % of control | [10] 95 % of control | [11] 93 % of control

CSc1ncnc2[nH]ncc12
inactive: dose: 25.0 mg/kg/injection, schedule: Q01DX009 (ip), vehicle: saline with Tween-80 108 % of control | dose: 25.0 mg/kg/injection, schedule: Q04DX003 (ip), vehicle: saline with Tween-80 105 % of control | [7] 102 % of control | dose: 50.0 mg/kg/injection, schedule: Q04DX003 (ip), vehicle: saline with Tween-80 103 % of control | [12] 96 % of control and 106 % of control

CCOC1C=CC(OC(C)=O)C(COC(C)=O)O1 (configuration not stated)
inactive: [13] 108 % of control | [8] 96 % of control | [14] 100 % of control | [10] 96 % of control | [15] 104 % of control | [11] 94 % of control

CN(C)Cc1cccc(C(F)(F)F)c1C(O)c1ccccc1 (configuration not stated)
inactive: dose: 50.0 mg/kg/injection, schedule: Q01DX001 (ip), vehicle: saline 100 % of control | [16] 94 % of control | [17] 103 % of control | [18] 100 % of control

COc1cc(C(C)S(=O)(=O)c2ccccc2)ccc1O (configuration not stated)
inactive: [19] 97 % of control | [20] 97 % of control | [21] 103 % of control

CCNC(=O)c1csnn1
inactive: dose: 75.0 mg/kg/injection, schedule: Q01DX001 (ip), vehicle: other 98 % of control | dose: 150.0 mg/kg/injection, schedule: Q01DX001 (ip), vehicle: other 101 % of control | dose: 300.0 mg/kg/injection, schedule: Q01DX001 (ip), vehicle: other 104 % of control

CNC(c1ccccc1)C(O)c1ccccc1 (configuration not stated)
inactive: dose: 25.0 mg/kg/injection, schedule: Q01DX009 (ip), vehicle: Klucel (hydroxypropylcellulose) (HPC) 106 % of control | [22] 95 % of control | [13] 106 % of control | [8] 97 % of control

CC(CS(=O)(=O)O)N1CCOCC1 (configuration not stated)
inactive: [5] 95 % of control | [23] 100 % of control | [6] 98 % of control | [24] 101 % of control | dose: 400.0 mg/kg/injection, schedule: Q01DX009 (ip), vehicle: saline 102 % of control | dose: 400.0 mg/kg/injection, schedule: Q04DX003 (ip), vehicle: saline 97 % of control

O=C(NCCCNC(=O)Nc1cccc(C2=NCCN2)c1)Nc1cccc(C2=NCCN2)c1
inactive: dose: 8.0 mg/kg/injection, schedule: Q01DX Z (ip), vehicle: carboxymethylcellulose (CMC) 104 % of control | dose: 16.0 mg/kg/injection, schedule: Q01DX Z (ip), vehicle: carboxymethylcellulose (CMC) 111 % of control | dose: 32.0 mg/kg/injection, schedule: Q01DX Z (ip), vehicle: carboxymethylcellulose (CMC) 104 % of control | dose: 64.0 mg/kg/injection, schedule: Q01DX Z (ip), vehicle: carboxymethylcellulose (CMC) 94 % of control

CN(C)/C(=C/c1ccccc1)CS(=O)(=O)N(C)C
inactive: dose: 75.0 mg/kg/injection, schedule: Q01DX001 (ip), vehicle: carboxymethylcellulose (CMC) 106 % of control | dose: 150.0 mg/kg/injection, schedule: Q01DX001 (ip), vehicle: carboxymethylcellulose (CMC) 97 % of control | dose: 300.0 mg/kg/injection, schedule: Q01DX001 (ip), vehicle: carboxymethylcellulose (CMC) 89 % of control

CC[CH2][Pb]([CH2]CC)([CH2]CC)[O]C(=O)C1CCCCC1
inactive: dose: 1.5 mg/kg/injection, schedule: Q01DX009 (ip), vehicle: saline with Tween-80 100 % of control | dose: 1.5 mg/kg/injection, schedule: Q04DX003 (ip), vehicle: saline with Tween-80 106 % of control | dose: 3.0 mg/kg/injection, schedule: Q01DX009 (ip), vehicle: saline with Tween-80 100 % of control | dose: 3.0 mg/kg/injection, schedule: Q04DX003 (ip), vehicle: saline with Tween-80 116 % of control | dose: 6.0 mg/kg/injection, schedule: Q01DX009 (ip), vehicle: saline with Tween-80 104 % of control | dose: 6.0 mg/kg/injection, schedule: Q04DX003 (ip), vehicle: saline with Tween-80 104 % of control

CC1=CC2=NC(=O)C(c3ccccc3)C(=O)N2C=C1 (configuration not stated)
inactive: [13] 90 % of control | [8] 90 % of control | [14] 100 % of control | [10] 103 % of control | [15] 86 % of control | [11] 97 % of control

CCOC(=O)c1c(Cl)nc2ccccc2c1Cl
inactive: [16] 92 % of control | [17] 97 % of control | [18] 94 % of control

c1ccc(CC2CCCCCC2)cc1
inactive: [13] 96 % of control | [8] 100 % of control | dose: 150.0 mg/kg/injection, schedule: Q01DX009 (ip), vehicle: Klucel (hydroxypropylcellulose) (HPC) 101 % of control | [14] 102 % of control | [10] 91 % of control | [11] 96 % of control

CCOC(=O)/C(C#N)=C/c1cccn1Cc1ccc2ccccc2c1
inactive: [1] 101 % of control | [2] 90 % of control | [3] 90 % of control

CC(C)Oc1ccc(Nc2ccccc2)cc1
inactive: [22] 100 % of control | [16] 96 % of control | [13] 99 % of control | [17] 107 % of control | [14] 100 % of control | [18] 88 % of control

COC1OC(CO)C(O)C(OS(C)(=O)=O)C1OS(C)(=O)=O (configuration not stated)
inactive: dose: 100.0 mg/kg/injection, schedule: Q04DX002 (ip), vehicle: saline 104 % of control | dose: 200.0 mg/kg/injection, schedule: Q04DX002 (ip), vehicle: saline 104 % of control | dose: 400.0 mg/kg/injection, schedule: Q04DX002 (ip), vehicle: saline 93 % of control

CNc1c(C)n(C)n(-c2ccccc2)c1=O.[Cl][Pd]([Cl])([Cl])[Cl]
inactive: dose: 50.0 mg/kg/injection, schedule: Q04DX003 (ip), vehicle: saline 106 % of control | [23] 111 % of control | [24] 100 % of control

CC=NC(C[S-])C(=O)O.CC=NC(C[S-])C(=O)O.[Fe+2] (configuration not stated)
inactive: [4] 92 % of control | [12] 94 % of control | [9] 91 % of control | dose: 200.0 mg/kg/injection, schedule: Q04DX003 (ip), vehicle: saline with Tween-80 93 % of control | dose: 400.0 mg/kg/injection, schedule: Q01DX009 (ip), vehicle: saline with Tween-80 87 % of control | dose: 400.0 mg/kg/injection, schedule: Q04DX003 (ip), vehicle: saline with Tween-80 88 % of control

Cn1c(N)c(N=Nc2ccc(S(=O)(=O)Nc3ncccn3)cc2)c(=O)n(C)c1=O
inactive: [19] 98 % of control | [20] 98 % of control | [21] 95 % of control
